In general, Ki refers to the equilibrium dissociation constant of an inhibitor or competing ligand from its target. Higher therefore signals a looser hold on the target.

The source of these data is ChEMBL document CHEMBL1126778, “Adenosine A1 antagonists. 3. Structure-activity relationships on amelioration against scopolamine- or N6-((R)-phenylisopropyl)adenosine-induced cognitive disturbance” (J Med Chem, 1993).

Test [1] concerns Mus musculus. In words: Acquisition time in (R)-PIA) induced avoidance test (performed in mice) for antagonistic activity after peroral administration of 0.08 mg/kg. In kind it is functional. Conditions: route oral.
For test [2], the system named is Mus musculus. Put plainly: Acquisition time in (R)-PIA) induced avoidance test (performed in mice) for antagonistic activity after p.o. administration of 0.31 mg/kg. In kind it is functional. Conditions: route oral.
The subject of test [3] is Mus musculus. In words: Acquisition time in (R)-PIA) induced avoidance test (performed in mice) for antagonistic activity after p.o. administration of 1.25 mg/kg. In kind it is functional. Conditions: route oral.
The test system of test [4] is Mus musculus. Put plainly: Retention time in (R)-PIA) induced avoidance test (performed in mice) for antagonistic activity after p.o. administration of 1.25 mg/kg. More on the design: dose 1.25 mg/kg. In kind it is functional, organism-based.
Test [5] deals with Mus musculus. In words: Retention time in (R)-PIA) induced avoidance test (performed in mice) for antagonistic activity after peroral administration of 5 mg/kg. It is filed as functional, organism-based. More on the design: dose 5 mg/kg.
The test system of test [6] is Mus musculus. In words: Retention time in (R)-PIA) induced avoidance test (performed in mice) for antagonistic activity after peroral administration of 0.08 mg/kg. In kind it is functional, organism-based. More on the design: dose 0.08 mg/kg.
Test [7] has as its system Mus musculus. In words: Retention time in (R)-PIA) induced avoidance test (performed in mice) for antagonistic activity after peroral administration of 0.31 mg/kg. In kind it is functional, organism-based. More on the design: dose 0.31 mg/kg.
The test system of test [8] is Mus musculus. Put plainly: Tested for locomotor activity after oral administration of 5 mg/kg for 120 min. In kind it is functional.
Test [9] has as its system Mus musculus. In words: Tested for locomotor activity after oral administration of 1.25 mg/kg for 120 min. It is filed as functional.
The subject of test [10] is Rattus norvegicus. Put plainly: Acquisition time in Scopolamine induced avoidance test (performed in rat) for antagonistic activity after peroral administration of 1.25 mg/kg. In kind it is functional. The conditions noted are these: route oral.
Test [11] concerns Rattus norvegicus. Put plainly: Acquisition time in Scopolamine induced avoidance test (performed in rat) for antagonistic activity after peroral administration of 20 mg/kg. It is filed as functional. The conditions noted are these: route oral.
In test [12] the test system is Rattus norvegicus. Put plainly: Acquisition time in Scopolamine induced avoidance test (performed in rat) for antagonistic activity after p.o. administration of 0.08 mg/kg. It is filed as functional. The conditions noted are these: route oral.
Test [13] deals with Rattus norvegicus. Put plainly: Acquisition time in Scopolamine induced avoidance test (performed in rat) for antagonistic activity after p.o. administration of 0.31 mg/kg. Conditions: route oral. In kind it is functional.
Test [14] concerns Rattus norvegicus. In words: Acquisition time in Scopolamine induced avoidance test (performed in rat) for antagonistic activity after p.o. administration of 5 mg/kg. In kind it is functional. Conditions: route oral.
Test [15] has as its system Rattus norvegicus. In words: Retention time in Scopolamine induced avoidance test (performed in […]) for antagonistic activity after peroral administration of 5 mg/kg. It is filed as functional, organism-based. More on the design: dose 5 mg/kg.
For test [16], the system named is Rattus norvegicus. Put plainly: Retention time in Scopolamine induced avoidance test (performed in rat) for antagonistic activity after p.o. administration of 0.08 mg/kg. It is filed as functional, organism-based. More on the design: dose 0.08 mg/kg.
Test [17] concerns Rattus norvegicus. Put plainly: Retention time in Scopolamine induced avoidance test (performed in rat) for antagonistic activity after p.o. administration of 0.31 mg/kg. In kind it is functional, organism-based. More on the design: dose 0.31 mg/kg.
Test [18] concerns Rattus norvegicus. In words: Retention time in Scopolamine induced avoidance test (performed in rat) for antagonistic activity after peroral administration of 1.25 mg/kg. In kind it is functional, organism-based. More on the design: dose 1.25 mg/kg.
The test system of test [19] is Rattus norvegicus. Put plainly: Retention time in Scopolamine induced avoidance test (performed in rat) for antagonistic activity after peroral administration of 20 mg/kg (n=10). In kind it is functional, organism-based. More on the design: dose 20 mg/kg.
Test [20] relates to Mus musculus. In words: Acquisition time in (R)-PIA) induced avoidance test (performed in mice) for antagonistic activity after peroral administration of 5 mg/kg. It is filed as functional. Conditions: route oral.
Test [21] has as its system Mus musculus. Put plainly: Retention time in (R)-PIA) induced avoidance test (performed in mice) for antagonistic activity after peroral administration of 0.02 mg/kg.
The subject of test [22] is Mus musculus. In words: Acquisition time in (R)-PIA) induced avoidance test (performed in mice) for antagonistic activity after peroral administration of 0.02 mg/kg. The conditions noted are these: route oral.
Test [23] has as its system Mus musculus. In words: Acquisition time in (R)-PIA) induced avoidance test (performed in mice) for antagonistic activity after peroral administration of 0.08 mg/kg (n=15). In kind it is functional. Conditions: route oral.
Test [24] deals with Mus musculus. In words: Acquisition time in (R)-PIA) induced avoidance test (performed in mice) for antagonistic activity after peroral administration of 0.31 mg/kg (n=15). It is filed as functional. The conditions noted are these: route oral.
For test [25], the system named is Mus musculus. In words: Acquisition time in (R)-PIA) induced avoidance test (performed in mice) for antagonistic activity after peroral administration of 1.25 mg/kg (n=15). It is filed as functional. Conditions: route oral.
Test [26] has as its system Mus musculus. In words: Retention time in (R)-PIA) induced avoidance test (performed in mice) for antagonistic activity after peroral administration of 1.25 mg/kg (n=15) (P<0.01). It is filed as functional, organism-based. More on the design: dose 1.25 mg/kg.
In test [27] the test system is Mus musculus. Put plainly: Retention time in (R)-PIA) induced avoidance test (performed in mice) for antagonistic activity after peroral administration of 0.08 mg/kg (n=15) (P<0.01). More on the design: dose 0.08 mg/kg. In kind it is functional, organism-based.
In test [28] the test system is Mus musculus. In words: Retention time in (R)-PIA) induced avoidance test (performed in mice) for antagonistic activity after peroral administration of 0.31 mg/kg (n=15) (P<0.005). More on the design: dose 0.31 mg/kg. In kind it is functional, organism-based.
For test [29], the system named is Mus musculus. In words: Tested for locomotor activity after oral administration of 10 mg/kg for 120 min. In kind it is functional.
The test system of test [30] is Mus musculus. Put plainly: Tested for locomotor activity after oral administration of 40 mg/kg for 120 min. It is filed as functional.
Test [31] relates to Mus musculus. Put plainly: Tested for locomotor activity after oral administration of 6.25 mg/kg for 120 min. In kind it is functional.
In test [32] the test system is Rattus norvegicus. In words: Acquisition time in Scopolamine induced avoidance test (performed in rat) for antagonistic activity after peroral administration of 5 mg/kg. Conditions: route oral. It is filed as functional.
For test [33], the system named is Rattus norvegicus. In words: Acquisition time in Scopolamine induced avoidance test (performed in rat) for antagonistic activity after peroral administration of 0.02 mg/kg (n=13). It is filed as functional. The conditions noted are these: route oral.
The subject of test [34] is Rattus norvegicus. In words: Acquisition time in Scopolamine induced avoidance test (performed in rat) for antagonistic activity after peroral administration of 0.08 mg/kg (n=13). The conditions noted are these: route oral. It is filed as functional.
The test system of test [35] is Rattus norvegicus. Put plainly: Acquisition time in Scopolamine induced avoidance test (performed in rat) for antagonistic activity after peroral administration of 0.31 mg/kg (n=13). It is filed as functional. The conditions noted are these: route oral.
For test [36], the system named is Rattus norvegicus. In words: Retention time in Scopolamine induced avoidance test (performed in rat) for antagonistic activity after peroral administration of 0.02 mg/kg (n=13). In kind it is functional, organism-based. More on the design: dose 0.02 mg/kg.
Test [37] has as its system Rattus norvegicus. In words: Retention time in Scopolamine induced avoidance test (performed in rat) for antagonistic activity after peroral administration of 0.08 mg/kg (n=13) (P<0.01). In kind it is functional, organism-based. Details: dose 0.08 mg/kg.
Test [38] has as its system Rattus norvegicus. In words: Retention time in Scopolamine induced avoidance test (performed in rat) for antagonistic activity after peroral administration of 0.31 mg/kg (n=13) (P<0.005). In kind it is functional, organism-based. Details: dose 0.31 mg/kg.
Test [39] deals with Rattus norvegicus. In words: Retention time in Scopolamine induced avoidance test (performed in rat) for antagonistic activity after peroral administration of 5 mg/kg. In kind it is functional, organism-based. Details: dose 5 mg/kg.
For the next test, the target named is Adenosine A2 receptor (Rattus norvegicus, UniProt P29276+P30543). Put plainly: Binding affinity at Adenosine A2 receptor from rat striatal membranes by N-[3H] ethyladenosin-5'- uronamide displacement.
Test [40] concerns Rattus norvegicus. Put plainly: Retention time in Scopolamine induced avoidance test (performed in rat) for antagonistic activity after peroral administration of 20 mg/kg (n=19). In kind it is functional, organism-based. More on the design: dose 20 mg/kg.
Test [41] relates to Rattus norvegicus. Put plainly: Acquisition time in Scopolamine induced avoidance test (performed in rat) for antagonistic activity after peroral administration of 1.25 mg/kg (n=20). Conditions: route oral. In kind it is functional.

As for `CCCN1C(=O)N2CC(CC)N=C2c2[nH]c(C34CC5CC(CC3C5)C4)nc21` (racemic), the Acquisition time turned out to be 23.5 s in the test on Mus musculus [1]; 22.7 s in the test on Mus musculus [2]; 21.2 s in the test on Mus musculus [3]; 14.1 s in the test with Rattus norvegicus [10]; 26.6 s with Rattus norvegicus [11]; 21.3 s with Rattus norvegicus [12]. Also, the Acquisition time is recorded as 17.3 s in the test with Rattus norvegicus [13], 22.5 s in the test on Rattus norvegicus [14], 24.9 s in the test on Mus musculus [20] and 23 s in the test on Mus musculus [22]. Besides, the Retention time with Mus musculus [4] amounted to 231 s; with Mus musculus [5], 277 s; in the test on Mus musculus [6] it was 196 s; in the test with Mus musculus [7], 292 s; in the test with Rattus norvegicus [15], 66.3 s; in the test on Rattus norvegicus [16], 251 s. Besides, the Retention time with Rattus norvegicus [17] came out at 221 s; with Rattus norvegicus [18], 40.8 s; in the test on Rattus norvegicus [19], 21 s; in the test on Mus musculus [21] it was 168 s. The compound further gave a Locomotor activity in the test with Mus musculus [8] of 6907 Counts. In the test on Mus musculus [9], this compound displayed a Locomotor of 5761 Counts.
For the compound `CCCn1c(=O)c2[nH]c(C3CCCC3)nc2n(CCC)c1=O` [1,3-DIPROPYL-8-CYCLOPENTYLXANTHINE [DPCPX]], the Acquisition time in the test with Mus musculus [23] was determined as 19.4 s; in the test with Mus musculus [24] it was 19.1 s; in the test on Mus musculus [25], 20.5 s; in the test with Rattus norvegicus [10], 12.4 s; with Rattus norvegicus [32], 14.6 s; in the test with Rattus norvegicus [33], 19.8 s. The Acquisition time in the test with Rattus norvegicus [34] is listed as 21.5 s; with Rattus norvegicus [35], 24.7 s; in the test on Mus musculus [20], 18.4 s. In addition, the Retention time amounted to 272 s in the test with Mus musculus [26]; 433 s in the test on Mus musculus [5]; 190 s with Mus musculus [27]; 456 s in the test on Mus musculus [28]; 32 s in the test with Rattus norvegicus [36]; 105 s in the test on Rattus norvegicus [37]. For the same compound, the Retention time worked out at 273 s with Rattus norvegicus [38] and 68.7 s with Rattus norvegicus [39]. Also, the Locomotor activity with Mus musculus [29] is on record as 4679 Counts; with Mus musculus [30] it was 5257 Counts; with Mus musculus [31], 3826 Counts.
On Adenosine A2 receptor, `CCCn1c(=O)c2nc(C3CCC(=O)C3)[nH]c2n(CCc2ccc(N)cc2)c1=O` (stereo not drawn) registered an inhibition constant Ki of more than 100 µM. The Acquisition time with Mus musculus [1] is on record as 16.4 s; with Mus musculus [2], 17.5 s; in the test on Mus musculus [3] it was 14.6 s; in the test on Rattus norvegicus [11], 13.6 s; in the test with Rattus norvegicus [12], 10.5 s; in the test with Rattus norvegicus [13] it was 13.1 s. The Acquisition time with Rattus norvegicus [14] is reported as 10.2 s; in the test with Mus musculus [20], 12.9 s; with Rattus norvegicus [41] it was 12.1 s; with Mus musculus [22], 14.2 s. Besides, the Retention time was found to be 19.1 s with Mus musculus [4]; 67.7 s in the test on Mus musculus [5]; 18.7 s in the test on Mus musculus [6]; 23.4 s with Mus musculus [7]; 108 s in the test with Rattus norvegicus [15]; 119 s in the test with Rattus norvegicus [16]. Also, the Retention time in the test with Rattus norvegicus [17] came to 109 s; in the test with Rattus norvegicus [18], 163 s; in the test on Rattus norvegicus [40], 117 s; with Mus musculus [21], 73.9 s.
